# From publication PMC5052704, “Transition metal ion FRET uncovers K^+ regulation of a neurotransmitter/sodium symporter” (Nature Communications, 2016)
# Target: T1, LeuT (leucine transporter) (Aquifex aeolicus, UniProt O67854, R30A/A313H/A317H/K398C)
# T1 construct: gene snf; full-length LeuT, C-terminal octahistidine tag with thrombin site, pET16b derivative, expressed in E. coli C41, purified in DDM; tmFRET variants labelled with fluorescein-5-maleimide
# Experiment: scintillation proximity assay, Na+-dependent [3H]leucine binding
# Details: 5 μM [3H]leucine; pH 7.5; DDM; fluorescein-labelled at K398C; labelled compound
structure (smiles),measurement,value
CC(C)C[C@H](N)C(=O)O [leucine],"scintillation proximity assay, Na+-dependent [3H]leucine binding",Na^+ dependence of [^3H]leucine binding to R30A^tmFRET
